According to patent US11987586B1 (TAKEDA PHARMACEUTICAL COMPANY LIMITED, priority 2022, dated 2024):

molecular target: T1, human OX2 receptor (Homo sapiens, UniProt O43614); test: Measurement of orexin type 2 receptor agonist activity (calcium fluorescence, Fluo-4, FDSS); type: cell-based; conditions: 3 uM test compound; CHO cells expressing human OX2 receptor; DMSO = 0%, 10 nM orexin A (human) = 100%
T1 construct: expressed in transfected cells
T1 sequence (O43614 1-444): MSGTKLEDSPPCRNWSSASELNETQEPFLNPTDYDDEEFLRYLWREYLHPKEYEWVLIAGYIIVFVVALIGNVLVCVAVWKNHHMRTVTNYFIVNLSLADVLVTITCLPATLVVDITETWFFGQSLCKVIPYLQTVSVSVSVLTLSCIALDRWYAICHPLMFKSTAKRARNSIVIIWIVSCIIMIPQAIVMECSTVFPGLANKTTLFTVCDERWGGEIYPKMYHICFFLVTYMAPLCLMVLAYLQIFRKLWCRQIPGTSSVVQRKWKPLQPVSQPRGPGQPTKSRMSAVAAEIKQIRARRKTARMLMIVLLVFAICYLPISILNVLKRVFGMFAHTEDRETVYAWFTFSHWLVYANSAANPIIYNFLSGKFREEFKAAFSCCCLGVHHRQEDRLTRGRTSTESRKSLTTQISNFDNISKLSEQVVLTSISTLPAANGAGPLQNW
Method in brief: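 CHO-K1 cells stably expressing human OX2 receptor (residues 1-444) were loaded with Fluo-4 AM plus probenecid. Calcium fluorescence after compound addition was recorded for 1 min 40 s. Activity (%) was scaled between DMSO (0%) and 10 nM orexin A final (100%).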

For `CCc1cc(-c2c(F)cc(F)cc2F)c2c(-n3cc4n(c3=O)C[C@@H](NS(C)(=O)=O)C4(F)F)noc2n1` [Example 230, N-{(6R)-2-[6-ethyl-4-(2,4,6-trifluorophenyl)[1,2]oxazolo[5,4-b]pyridin-3-yl]-7,7-difluoro-3-oxo-2,5,6,7-tetrahydro-3H-pyrrolo[1,2-c]imidazol-6-yl}methanesulfonamide], which “OX2R agonist activity (3 uM, %)” value is on record?
The value was 111%.

For `CCS(=O)(=O)N[C@@H]1CN2C(=O)N(c3noc4cc(COC)cc(-c5c(F)cc(F)cc5F)c34)CC[C@@H]2C1(F)F` [Example 232, N-{(4aR,6R)-5,5-difluoro-2-[6-(methoxymethyl)-4-(2,4,6-trifluorophenyl)-1,2-benzoxazol-3-yl]-1-oxooctahydropyrrolo[1,2-c]pyrimidin-6-yl}ethanesulfonamide], which “OX2R agonist activity (3 uM, %)” value is on record?
The value was 107%.

For `Cc1cc2onc(N3CC[C@H]4N(C[C@@H](NS(=O)(=O)C5CC5)C4(F)F)C3=O)c2c(-c2c(F)cc(F)cc2F)n1` [Example 233, N-{(4aR,6R)-5,5-difluoro-2-[6-methyl-4-(2,4,6-trifluorophenyl)[1,2]oxazolo[4,5-c]pyridin-3-yl]-1-oxooctahydropyrrolo[1,2-c]pyrimidin-6-yl}cyclopropanesulfonamide], which “OX2R agonist activity (3 uM, %)” value is on record?
The value was 109%.

Which “OX2R agonist activity (3 uM, %)” value does the source give for `O=C1N(c2noc3ccc(F)c(-c4c(F)cc(F)cc4F)c23)CC[C@H]2N1C[C@@H](NS(=O)(=O)C1CC1)C2(F)F` [Example 234, N-{(4aR,6R)-5,5-difluoro-2-[5-fluoro-4-(2,4,6-trifluorophenyl)-1,2-benzoxazol-3-yl]-1-oxooctahydropyrrolo[1,2-c]pyrimidin-6-yl}cyclopropanesulfonamide] here?
The value was 111%.

For `CCS(=O)(=O)N[C@@H]1CN2C(=O)N(c3noc4nccc(-c5c(F)cc(F)cc5F)c34)CC[C@@H]2C1(F)F` [Example 235, N-{(4aR,6R)-5,5-difluoro-1-oxo-2-[4-(2,4,6-trifluorophenyl)[1,2]oxazolo[5,4-b]pyridin-3-yl]octahydropyrrolo[1,2-c]pyrimidin-6-yl}ethanesulfonamide], which “OX2R agonist activity (3 uM, %)” value is on record?
The value was 113%.

`O=C1N(c2noc3cc(F)cc(-c4c(F)cc(F)cc4F)c23)CC[C@H]2N1C[C@@H](NS(=O)(=O)CF)C2(F)F` [Example 236, N-{(4aR,6R)-5,5-difluoro-2-[6-fluoro-4-(2,4,6-trifluorophenyl)-1,2-benzoxazol-3-yl]-1-oxooctahydropyrrolo[1,2-c]pyrimidin-6-yl}-1-fluoromethanesulfonamide] was tested. Which “OX2R agonist activity (3 uM, %)” value did it give?
Its value is 108%.

How did the “OX2R agonist activity (3 uM, %)” value turn out when `CS(=O)(=O)N[C@@H]1CN2C(=O)N(c3noc4nccc(-c5c(F)cc(F)cc5F)c34)CC[C@@H]2C1(F)F` [Example 237, N-{(4aR,6R)-5,5-difluoro-1-oxo-2-[4-(2,4,6-trifluorophenyl)[1,2]oxazolo[5,4-b]pyridin-3-yl]octahydropyrrolo[1,2-c]pyrimidin-6-yl}methanesulfonamide] was run?
The value was 110%.

For `COCc1cc2onc(N3CC[C@H]4N(C[C@@H](NS(C)(=O)=O)C4(F)F)C3=O)c2c(-c2c(F)cccc2F)c1F` [Example 238, N-{(4aR,6R)-2-[4-(2,6-difluorophenyl)-5-fluoro-6-(methoxymethyl)-1,2-benzoxazol-3-yl]-5,5-difluoro-1-oxooctahydropyrrolo[1,2-c]pyrimidin-6-yl}methanesulfonamide], which “OX2R agonist activity (3 uM, %)” value is on record?
Its value is 106%.

`CCS(=O)(=O)N[C@@H]1Cn2c(cn(-c3noc4cc(COC)c(F)c(-c5c(F)cc(F)cc5F)c34)c2=O)C1(F)F` [Example 239, N-{(6R)-7,7-difluoro-2-[5-fluoro-6-(methoxymethyl)-4-(2,4,6-trifluorophenyl)-1,2-benzoxazol-3-yl]-3-oxo-2,5,6,7-tetrahydro-3H-pyrrolo[1,2-c]imidazol-6-yl}ethanesulfonamide] was tested. Which “OX2R agonist activity (3 uM, %)” value did it give?
The value was 95%.

How did the “OX2R agonist activity (3 uM, %)” value turn out when `CS(=O)(=O)N[C@@H]1CN2C(=O)N(c3noc4ccc(F)c(-c5c(F)cc(F)cc5F)c34)CC[C@@H]2C1(F)F` [Example 241, N-{(4aR,6R)-5,5-difluoro-2-[5-fluoro-4-(2,4,6-trifluorophenyl)-1,2-benzoxazol-3-yl]-1-oxooctahydropyrrolo[1,2-c]pyrimidin-6-yl}methanesulfonamide] was run?
Its value is 100%.

For `O=C1N(c2noc3cccc(-c4c(F)cc(F)cc4F)c23)CC[C@H]2N1C[C@@H](NS(=O)(=O)C1CC1)C2(F)F` [Example 242, N-{(4aR,6R)-5,5-Difluoro-1-oxo-2-[4-(2,4,6-trifluorophenyl)-1,2-benzoxazol-3-yl]octahydropyrrolo[1,2-c]pyrimidin-6-yl}cyclopropanesulfonamide], which “OX2R agonist activity (3 uM, %)” value is on record?
Its value is 105%.

Which “OX2R agonist activity (3 uM, %)” value does the source give for `COCc1cc2onc(-n3cc4n(c3=O)C[C@@H](NS(C)(=O)=O)C4(F)F)c2c(-c2c(F)cc(F)cc2F)c1F` [Example 244, N-{(6R)-7,7-difluoro-2-[5-fluoro-6-(methoxymethyl)-4-(2,4,6-trifluorophenyl)-1,2-benzoxazol-3-yl]-3-oxo-2,5,6,7-tetrahydro-3H-pyrrolo[1,2-c]imidazol-6-yl}methanesulfonamide] here?
The value was 89%.

How did the “OX2R agonist activity (3 uM, %)” value turn out when `CCS(=O)(=O)N[C@@H]1CN2C(=O)N(c3noc4cc(F)cc(-c5c(F)cccc5F)c34)CC[C@@H]2C1(F)F` [Example 247, N-{(4aR,6R)-2-[4-(2,6-difluorophenyl)-6-fluoro-1,2-benzoxazol-3-yl]-5,5-difluoro-1-oxooctahydropyrrolo[1,2-c]pyrimidin-6-yl}ethanesulfonamide] was run?
Its value is 101%.

How did the “OX2R agonist activity (3 uM, %)” value turn out when `Cc1cc2onc(N3CC[C@H]4N(C[C@@H](NS(C)(=O)=O)C4(F)F)C3=O)c2c(-c2c(F)cc(F)cc2F)n1` [Example 248, N-{(4aR,6R)-5,5-difluoro-2-[6-methyl-4-(2,4,6-trifluorophenyl)[1,2]oxazolo[4,5-c]pyridin-3-yl]-1-oxooctahydropyrrolo[1,2-c]pyrimidin-6-yl}methanesulfonamide] was run?
The value was 107%.

How did the “OX2R agonist activity (3 uM, %)” value turn out when `CCOc1cc(-c2c(F)cc(F)cc2F)c2c(N3CC[C@H]4N(C[C@@H](NS(=O)(=O)C5CC5)C4(F)F)C3=O)noc2c1` [Example 249, N-{(4aR,6R)-2-[6-ethoxy-4-(2,4,6-trifluorophenyl)-1,2-benzoxazol-3-yl]-5,5-difluoro-1-oxooctahydropyrrolo[1,2-c]pyrimidin-6-yl}cyclopropanesulfonamide] was run?
Its value is 102%.

How did the “OX2R agonist activity (3 uM, %)” value turn out when `COc1cc(-c2c(F)cc(F)cc2F)c2c(-n3cc4n(c3=O)C[C@@H](NS(C)(=O)=O)C4(F)F)noc2n1` [Example 250, N-{(6R)-7,7-difluoro-2-[6-methoxy-4-(2,4,6-trifluorophenyl)[1,2]oxazolo[5,4-b]pyridin-3-yl]-3-oxo-2,5,6,7-tetrahydro-3H-pyrrolo[1,2-c]imidazol-6-yl}methanesulfonamide] was run?
Its value is 99%.

Which “OX2R agonist activity (3 uM, %)” value does the source give for `CS(=O)(=O)N[C@H]1C[C@H]2CCN(c3noc4cc(C(F)(F)F)cc(-c5c(F)cccc5F)c34)C(=O)N2C1` [Example 251, N-{(4aR,6S)-2-[4-(2,6-difluorophenyl)-6-(trifluoromethyl)-1,2-benzoxazol-3-yl]-1-oxooctahydropyrrolo[1,2-c]pyrimidin-6-yl}methanesulfonamide] here?
Its value is 109%.

With `CS(=O)(=O)N[C@@H]1CN2C(=O)N(c3noc4cc(F)c(F)c(-c5c(F)cccc5F)c34)CC[C@@H]2C1(F)F` [Example 252, N-{(4aR,6R)-2-[4-(2,6-difluorophenyl)-5,6-difluoro-1,2-benzoxazol-3-yl]-5,5-difluoro-1-oxooctahydropyrrolo[1,2-c]pyrimidin-6-yl}methanesulfonamide] as the compound, how does the “OX2R agonist activity (3 uM, %)” value read?
The value was 96%.

How did the “OX2R agonist activity (3 uM, %)” value turn out when `CS(=O)(=O)N[C@H]1C[C@H]2CCN(c3noc4cc(F)cc(-c5c(F)cccc5F)c34)C(=O)N2C1` [Example 253, N-{(4aR,6S)-2-[4-(2,6-difluorophenyl)-6-fluoro-1,2-benzoxazol-3-yl]-1-oxooctahydropyrrolo[1,2-c]pyrimidin-6-yl}methanesulfonamide] was run?
Its value is 101%.

For `CCS(=O)(=O)N[C@@H]1CN2C(=O)N(c3noc4cc(F)cc(-c5ncc(F)cc5F)c34)CC[C@@H]2C1(F)F` [Example 254, N-{(4aR,6R)-2-[4-(3,5-difluoropyridin-2-yl)-6-fluoro-1,2-benzoxazol-3-yl]-5,5-difluoro-1-oxooctahydropyrrolo[1,2-c]pyrimidin-6-yl}ethanesulfonamide], which “OX2R agonist activity (3 uM, %)” value is on record?
Its value is 95%.

`CCS(=O)(=O)N[C@@H]1CN2C(=O)N(c3noc4cc(OC(F)F)cc(-c5c(F)cccc5F)c34)CC[C@@H]2C1(F)F` [Example 255, N-{(4aR,6R)-2-[6-(difluoromethoxy)-4-(2,6-difluorophenyl)-1,2-benzoxazol-3-yl]-5,5-difluoro-1-oxooctahydropyrrolo[1,2-c]pyrimidin-6-yl}ethanesulfonamide] was tested. Which “OX2R agonist activity (3 uM, %)” value did it give?
Its value is 107%.

Which “OX2R agonist activity (3 uM, %)” value does the source give for `O=C1N(c2noc3cc(OC(F)F)cc(-c4c(F)cccc4F)c23)CC[C@H]2N1C[C@@H](NS(=O)(=O)C1CC1)C2(F)F` [Example 256, N-{(4aR,6R)-2-[6-(difluoromethoxy)-4-(2,6-difluorophenyl)-1,2-benzoxazol-3-yl]-5,5-difluoro-1-oxooctahydropyrrolo[1,2-c]pyrimidin-6-yl}cyclopropanesulfonamide] here?
Its value is 103%.
